Test results: BindingDB's records for PubMed 20126400 (University of Oklahoma, 2010)

Columns and labels:
Experiment in all cases: Ray2010 Assay 74
[1] = molecular target: D(1B) dopamine receptor (Homo sapiens, UniProt P21918)
Text: (§1) Table S2 shows raw Ki data for the current study combined with data collected from the literature for the ten additional compounds.

[2] = molecular target: T1, Muscarinic acetylcholine receptor M5 (Homo sapiens, UniProt P08912)
T1 sequence (P08912 whole entry): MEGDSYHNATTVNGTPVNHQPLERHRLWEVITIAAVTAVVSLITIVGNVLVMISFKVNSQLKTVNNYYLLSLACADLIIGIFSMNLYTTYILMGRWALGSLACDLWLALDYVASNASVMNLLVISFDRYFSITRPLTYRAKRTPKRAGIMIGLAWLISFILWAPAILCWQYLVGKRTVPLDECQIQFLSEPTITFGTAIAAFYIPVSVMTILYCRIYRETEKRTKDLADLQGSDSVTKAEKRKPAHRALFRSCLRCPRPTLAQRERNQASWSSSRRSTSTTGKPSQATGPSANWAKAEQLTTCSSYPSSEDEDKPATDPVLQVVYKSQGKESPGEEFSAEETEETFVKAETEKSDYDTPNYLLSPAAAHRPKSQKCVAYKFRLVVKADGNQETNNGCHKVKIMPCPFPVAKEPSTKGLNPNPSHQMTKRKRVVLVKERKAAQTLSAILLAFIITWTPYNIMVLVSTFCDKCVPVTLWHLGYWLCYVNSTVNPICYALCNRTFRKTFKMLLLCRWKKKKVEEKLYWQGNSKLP
Text: as §1

[3] = molecular target: Cannabinoid receptor 1 (Homo sapiens, UniProt P21554)
Text: as §1

[4] = molecular target: 5-hydroxytryptamine receptor 5A (Homo sapiens, UniProt P47898)
Sequence of 5-hydroxytryptamine receptor 5A (P47898 whole entry): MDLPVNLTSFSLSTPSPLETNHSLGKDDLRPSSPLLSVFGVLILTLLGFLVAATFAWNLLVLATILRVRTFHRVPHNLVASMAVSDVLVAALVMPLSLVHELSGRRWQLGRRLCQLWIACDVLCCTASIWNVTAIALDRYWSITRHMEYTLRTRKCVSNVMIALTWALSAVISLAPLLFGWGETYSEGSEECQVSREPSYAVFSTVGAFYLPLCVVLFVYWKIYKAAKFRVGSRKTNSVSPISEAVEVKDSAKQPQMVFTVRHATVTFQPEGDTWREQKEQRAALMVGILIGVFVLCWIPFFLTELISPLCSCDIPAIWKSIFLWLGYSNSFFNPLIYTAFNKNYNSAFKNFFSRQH
Text: as §1

[5] = molecular target: Nischarin (Homo sapiens, UniProt Q9Y2I1)
Sequence of Nischarin (Q9Y2I1 whole entry): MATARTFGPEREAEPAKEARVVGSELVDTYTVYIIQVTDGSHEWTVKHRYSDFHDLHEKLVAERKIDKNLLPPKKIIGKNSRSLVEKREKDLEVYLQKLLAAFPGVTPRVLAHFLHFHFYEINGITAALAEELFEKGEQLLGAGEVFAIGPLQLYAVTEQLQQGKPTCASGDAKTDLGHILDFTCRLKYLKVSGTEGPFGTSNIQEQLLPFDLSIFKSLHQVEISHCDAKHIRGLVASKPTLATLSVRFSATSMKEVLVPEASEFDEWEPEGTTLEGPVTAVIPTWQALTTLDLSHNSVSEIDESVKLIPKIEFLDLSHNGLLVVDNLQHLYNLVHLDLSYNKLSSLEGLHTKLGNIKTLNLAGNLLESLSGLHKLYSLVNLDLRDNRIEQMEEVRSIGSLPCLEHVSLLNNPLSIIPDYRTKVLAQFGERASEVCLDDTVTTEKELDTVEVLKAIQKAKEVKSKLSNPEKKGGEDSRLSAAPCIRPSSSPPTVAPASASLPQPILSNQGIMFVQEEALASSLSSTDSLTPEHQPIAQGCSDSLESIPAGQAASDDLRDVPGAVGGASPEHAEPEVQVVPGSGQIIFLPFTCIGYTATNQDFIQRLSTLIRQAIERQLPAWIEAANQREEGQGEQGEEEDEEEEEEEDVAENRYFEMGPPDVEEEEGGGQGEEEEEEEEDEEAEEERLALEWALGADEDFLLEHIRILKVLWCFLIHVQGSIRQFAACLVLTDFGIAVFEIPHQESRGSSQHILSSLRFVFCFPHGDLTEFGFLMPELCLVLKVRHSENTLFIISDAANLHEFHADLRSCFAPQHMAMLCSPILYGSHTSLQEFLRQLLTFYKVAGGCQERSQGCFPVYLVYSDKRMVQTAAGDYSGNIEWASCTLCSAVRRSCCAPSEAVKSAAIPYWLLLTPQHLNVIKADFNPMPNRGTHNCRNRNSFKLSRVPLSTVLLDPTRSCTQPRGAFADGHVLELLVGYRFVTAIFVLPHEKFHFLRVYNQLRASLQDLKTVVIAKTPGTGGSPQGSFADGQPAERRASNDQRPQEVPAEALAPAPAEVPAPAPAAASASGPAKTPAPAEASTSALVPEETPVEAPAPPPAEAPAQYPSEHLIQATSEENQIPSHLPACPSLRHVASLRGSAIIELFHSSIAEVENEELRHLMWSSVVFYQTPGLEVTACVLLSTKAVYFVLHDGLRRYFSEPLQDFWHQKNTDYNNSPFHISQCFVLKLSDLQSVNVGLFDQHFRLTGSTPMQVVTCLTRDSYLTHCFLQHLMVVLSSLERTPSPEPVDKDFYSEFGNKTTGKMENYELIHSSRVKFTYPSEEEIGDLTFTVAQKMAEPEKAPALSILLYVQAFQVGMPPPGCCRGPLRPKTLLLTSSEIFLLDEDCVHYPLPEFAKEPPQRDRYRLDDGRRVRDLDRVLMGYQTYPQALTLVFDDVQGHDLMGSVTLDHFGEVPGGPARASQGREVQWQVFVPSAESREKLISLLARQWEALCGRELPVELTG
Text: as §1

[6] = molecular target: Kappa-type opioid receptor (Homo sapiens, UniProt P41145)
Sequence of Kappa-type opioid receptor (P41145 whole entry): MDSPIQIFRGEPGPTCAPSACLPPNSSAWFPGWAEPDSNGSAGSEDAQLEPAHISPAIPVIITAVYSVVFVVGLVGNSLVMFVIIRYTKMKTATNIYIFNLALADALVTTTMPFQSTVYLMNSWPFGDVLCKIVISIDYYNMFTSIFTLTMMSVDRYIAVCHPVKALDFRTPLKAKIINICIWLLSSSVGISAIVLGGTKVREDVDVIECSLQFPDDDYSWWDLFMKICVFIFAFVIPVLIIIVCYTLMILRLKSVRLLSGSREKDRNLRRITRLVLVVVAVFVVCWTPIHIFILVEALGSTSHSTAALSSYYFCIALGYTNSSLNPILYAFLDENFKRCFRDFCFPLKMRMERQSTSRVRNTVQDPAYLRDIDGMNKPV
Text: as §1

[7] = molecular target: Voltage-dependent calcium channel subunit alpha-2/delta-1 (Homo sapiens, UniProt P54289)
Sequence of Voltage-dependent calcium channel subunit alpha-2/delta-1 (P54289 25-956 limits assumed): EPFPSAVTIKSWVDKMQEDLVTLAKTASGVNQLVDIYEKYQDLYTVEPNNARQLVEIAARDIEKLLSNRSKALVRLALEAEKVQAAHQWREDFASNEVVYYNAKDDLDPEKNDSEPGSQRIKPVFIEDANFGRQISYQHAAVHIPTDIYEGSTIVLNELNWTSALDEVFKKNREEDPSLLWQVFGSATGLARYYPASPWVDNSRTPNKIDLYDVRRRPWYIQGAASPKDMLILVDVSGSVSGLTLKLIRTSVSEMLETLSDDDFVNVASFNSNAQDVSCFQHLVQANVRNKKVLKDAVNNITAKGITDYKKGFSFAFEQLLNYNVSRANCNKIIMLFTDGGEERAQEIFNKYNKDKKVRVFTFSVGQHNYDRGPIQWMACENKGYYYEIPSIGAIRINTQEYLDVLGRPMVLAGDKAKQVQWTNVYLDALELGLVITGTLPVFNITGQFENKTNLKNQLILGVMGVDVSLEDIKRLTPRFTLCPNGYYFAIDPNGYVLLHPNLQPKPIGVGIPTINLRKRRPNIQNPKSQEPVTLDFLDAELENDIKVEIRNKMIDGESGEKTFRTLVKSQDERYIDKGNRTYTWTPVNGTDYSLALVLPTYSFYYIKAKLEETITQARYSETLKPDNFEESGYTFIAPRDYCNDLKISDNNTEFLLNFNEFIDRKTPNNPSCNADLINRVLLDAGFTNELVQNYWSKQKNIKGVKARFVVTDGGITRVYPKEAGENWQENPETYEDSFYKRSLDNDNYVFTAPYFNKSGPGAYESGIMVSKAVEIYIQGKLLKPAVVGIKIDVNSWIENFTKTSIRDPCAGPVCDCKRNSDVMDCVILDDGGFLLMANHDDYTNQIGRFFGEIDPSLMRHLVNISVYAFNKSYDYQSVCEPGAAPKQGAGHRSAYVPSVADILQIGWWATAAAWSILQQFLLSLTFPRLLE
Sequence of Voltage-dependent calcium channel subunit alpha-2/delta-1 (P54289 957-1103 limits assumed): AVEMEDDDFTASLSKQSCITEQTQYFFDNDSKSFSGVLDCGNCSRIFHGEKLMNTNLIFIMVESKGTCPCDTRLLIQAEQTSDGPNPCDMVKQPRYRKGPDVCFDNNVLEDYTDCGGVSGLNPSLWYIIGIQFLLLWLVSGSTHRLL
Text: as §1

[8] = molecular target: T2, Muscarinic acetylcholine receptor M4 (Homo sapiens, UniProt P08173)
T2 sequence (P08173 whole entry): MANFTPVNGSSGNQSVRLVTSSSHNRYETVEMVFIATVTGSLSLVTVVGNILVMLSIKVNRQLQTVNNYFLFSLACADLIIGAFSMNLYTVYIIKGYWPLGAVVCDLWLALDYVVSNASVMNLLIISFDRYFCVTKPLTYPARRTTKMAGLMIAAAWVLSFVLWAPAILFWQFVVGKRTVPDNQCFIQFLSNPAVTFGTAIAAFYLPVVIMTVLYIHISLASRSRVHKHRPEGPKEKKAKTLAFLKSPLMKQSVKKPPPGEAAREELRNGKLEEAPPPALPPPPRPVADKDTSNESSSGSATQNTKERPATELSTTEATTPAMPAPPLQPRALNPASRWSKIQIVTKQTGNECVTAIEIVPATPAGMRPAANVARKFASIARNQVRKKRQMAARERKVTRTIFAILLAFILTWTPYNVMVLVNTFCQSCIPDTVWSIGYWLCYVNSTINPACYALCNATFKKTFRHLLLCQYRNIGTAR
Text: as §1

[9] = molecular target: Cannabinoid receptor 2 (Homo sapiens, UniProt P34972)
Text: as §1

[10] = molecular target: T3, Gamma-aminobutyric acid receptor subunit alpha-1/Adenosine receptor A1 (Homo sapiens, UniProt P14867+P30542)
T3 sequence (P30542 whole entry): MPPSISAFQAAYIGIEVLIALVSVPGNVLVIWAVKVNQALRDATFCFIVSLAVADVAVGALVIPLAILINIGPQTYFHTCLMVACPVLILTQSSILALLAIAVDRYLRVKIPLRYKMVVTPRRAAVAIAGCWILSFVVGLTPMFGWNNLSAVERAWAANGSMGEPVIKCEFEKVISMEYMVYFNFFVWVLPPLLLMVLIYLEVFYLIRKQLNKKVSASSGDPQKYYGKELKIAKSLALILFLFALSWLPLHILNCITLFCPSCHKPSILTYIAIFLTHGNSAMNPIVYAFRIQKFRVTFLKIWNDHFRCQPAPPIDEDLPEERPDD
T3 sequence (P14867 whole entry): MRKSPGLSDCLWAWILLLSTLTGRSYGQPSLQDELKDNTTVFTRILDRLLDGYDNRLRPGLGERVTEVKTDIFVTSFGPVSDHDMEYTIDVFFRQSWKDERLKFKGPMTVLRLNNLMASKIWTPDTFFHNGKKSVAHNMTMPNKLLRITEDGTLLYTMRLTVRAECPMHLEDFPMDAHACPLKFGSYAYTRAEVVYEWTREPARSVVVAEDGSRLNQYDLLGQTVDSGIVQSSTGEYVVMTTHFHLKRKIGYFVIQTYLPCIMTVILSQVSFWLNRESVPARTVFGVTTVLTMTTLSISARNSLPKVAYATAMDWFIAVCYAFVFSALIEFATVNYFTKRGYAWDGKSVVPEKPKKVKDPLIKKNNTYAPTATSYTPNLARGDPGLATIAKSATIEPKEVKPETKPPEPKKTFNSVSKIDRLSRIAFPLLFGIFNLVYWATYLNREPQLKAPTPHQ
Text: as §1

[11] = molecular target: T4, 5-hydroxytryptamine receptor 3A (Homo sapiens, UniProt P46098)
T4 sequence (P46098 whole entry): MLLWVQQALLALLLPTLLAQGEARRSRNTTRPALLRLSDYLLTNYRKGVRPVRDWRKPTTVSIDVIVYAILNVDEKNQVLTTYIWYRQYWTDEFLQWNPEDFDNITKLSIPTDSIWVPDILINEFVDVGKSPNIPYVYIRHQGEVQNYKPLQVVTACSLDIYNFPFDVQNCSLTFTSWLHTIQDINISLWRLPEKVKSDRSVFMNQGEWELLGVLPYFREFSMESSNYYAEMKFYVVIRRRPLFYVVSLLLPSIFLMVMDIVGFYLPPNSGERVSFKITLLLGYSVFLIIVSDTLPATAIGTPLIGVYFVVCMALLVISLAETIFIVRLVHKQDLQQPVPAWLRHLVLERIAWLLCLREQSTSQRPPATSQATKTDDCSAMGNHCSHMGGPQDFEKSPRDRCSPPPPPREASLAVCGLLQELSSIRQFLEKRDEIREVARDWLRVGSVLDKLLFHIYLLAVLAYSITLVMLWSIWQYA
Text: as §1

[12] = molecular target: T5, Alpha-1A adrenergic receptor (Homo sapiens, UniProt P35348)
T5 sequence (P35348 whole entry): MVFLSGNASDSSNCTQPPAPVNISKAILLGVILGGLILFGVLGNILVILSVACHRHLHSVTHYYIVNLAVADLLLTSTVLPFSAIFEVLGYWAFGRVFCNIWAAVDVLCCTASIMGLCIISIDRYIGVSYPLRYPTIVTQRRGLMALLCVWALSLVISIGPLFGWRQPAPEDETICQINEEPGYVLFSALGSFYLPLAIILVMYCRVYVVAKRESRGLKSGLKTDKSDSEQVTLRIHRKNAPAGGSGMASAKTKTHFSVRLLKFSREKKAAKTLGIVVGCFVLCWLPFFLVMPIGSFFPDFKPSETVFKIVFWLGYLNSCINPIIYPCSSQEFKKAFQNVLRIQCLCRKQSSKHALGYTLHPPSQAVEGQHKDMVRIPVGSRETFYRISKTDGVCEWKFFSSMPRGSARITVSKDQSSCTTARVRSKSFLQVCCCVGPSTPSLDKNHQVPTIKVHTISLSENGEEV
Text: as §1

[13] = molecular target: 5-hydroxytryptamine receptor 6 (Homo sapiens, UniProt P50406)
Sequence of 5-hydroxytryptamine receptor 6 (P50406 whole entry): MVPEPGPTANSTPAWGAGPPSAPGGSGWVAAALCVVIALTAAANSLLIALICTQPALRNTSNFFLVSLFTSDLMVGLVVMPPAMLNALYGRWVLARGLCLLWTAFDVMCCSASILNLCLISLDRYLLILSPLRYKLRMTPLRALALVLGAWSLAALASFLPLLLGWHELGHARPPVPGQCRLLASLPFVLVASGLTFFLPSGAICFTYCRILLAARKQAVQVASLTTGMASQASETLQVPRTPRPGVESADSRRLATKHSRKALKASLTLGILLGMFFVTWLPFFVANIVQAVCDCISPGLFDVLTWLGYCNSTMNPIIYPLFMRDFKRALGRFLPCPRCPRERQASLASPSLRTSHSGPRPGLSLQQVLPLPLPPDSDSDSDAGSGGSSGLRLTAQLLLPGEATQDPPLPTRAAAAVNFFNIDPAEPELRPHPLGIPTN
Text: as §1

[14] = molecular target: 5-hydroxytryptamine receptor 2B (Homo sapiens, UniProt P41595)
Sequence of 5-hydroxytryptamine receptor 2B (P41595 whole entry): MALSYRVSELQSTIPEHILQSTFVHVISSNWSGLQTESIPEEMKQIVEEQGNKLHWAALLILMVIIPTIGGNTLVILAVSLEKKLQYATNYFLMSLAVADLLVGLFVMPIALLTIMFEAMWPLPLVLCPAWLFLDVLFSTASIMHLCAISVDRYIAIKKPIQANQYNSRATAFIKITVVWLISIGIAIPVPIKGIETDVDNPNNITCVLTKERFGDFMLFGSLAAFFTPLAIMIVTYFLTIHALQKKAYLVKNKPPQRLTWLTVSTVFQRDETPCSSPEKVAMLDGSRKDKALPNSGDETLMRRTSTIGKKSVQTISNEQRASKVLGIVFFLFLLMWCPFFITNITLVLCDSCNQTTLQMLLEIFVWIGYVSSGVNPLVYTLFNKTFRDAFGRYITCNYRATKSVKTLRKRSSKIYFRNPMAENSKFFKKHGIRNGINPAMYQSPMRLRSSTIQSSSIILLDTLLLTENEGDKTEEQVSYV
Text: as §1

[15] = molecular target: D(2) dopamine receptor (Homo sapiens, UniProt P14416)
Text: as §1

[16] = molecular target: 5-hydroxytryptamine receptor 2A (Homo sapiens, UniProt P28223)
Text: as §1

[17] = molecular target: Histamine H1 receptor (Homo sapiens, UniProt P35367)
Sequence of Histamine H1 receptor (P35367 whole entry): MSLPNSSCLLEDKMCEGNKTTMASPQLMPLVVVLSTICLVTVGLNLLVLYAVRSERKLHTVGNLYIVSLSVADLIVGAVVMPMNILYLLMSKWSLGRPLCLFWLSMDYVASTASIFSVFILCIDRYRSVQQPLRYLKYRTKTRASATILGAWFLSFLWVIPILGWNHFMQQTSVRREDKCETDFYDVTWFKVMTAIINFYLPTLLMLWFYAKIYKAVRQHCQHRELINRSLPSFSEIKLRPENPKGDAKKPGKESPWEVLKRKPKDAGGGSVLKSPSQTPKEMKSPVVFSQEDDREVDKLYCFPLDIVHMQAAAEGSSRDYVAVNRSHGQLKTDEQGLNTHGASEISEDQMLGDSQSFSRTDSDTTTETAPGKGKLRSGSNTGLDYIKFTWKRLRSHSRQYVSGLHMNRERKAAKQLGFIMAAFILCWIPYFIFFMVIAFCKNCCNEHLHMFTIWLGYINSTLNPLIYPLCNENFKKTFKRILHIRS
Text: as §1

[18] = molecular target: T6, 5-hydroxytryptamine receptor 1A (Homo sapiens, UniProt P08908)
T6 sequence (P08908 whole entry): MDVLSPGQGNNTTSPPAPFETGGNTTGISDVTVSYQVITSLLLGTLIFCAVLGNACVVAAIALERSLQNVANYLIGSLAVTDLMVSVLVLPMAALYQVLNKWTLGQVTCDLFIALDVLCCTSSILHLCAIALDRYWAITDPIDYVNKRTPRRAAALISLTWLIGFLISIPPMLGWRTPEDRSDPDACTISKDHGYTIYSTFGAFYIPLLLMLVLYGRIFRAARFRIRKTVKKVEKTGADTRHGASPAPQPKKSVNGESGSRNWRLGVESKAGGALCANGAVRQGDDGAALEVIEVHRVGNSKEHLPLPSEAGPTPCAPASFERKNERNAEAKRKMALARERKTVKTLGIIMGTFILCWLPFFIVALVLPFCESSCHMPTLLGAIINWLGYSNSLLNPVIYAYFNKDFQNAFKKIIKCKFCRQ
Text: as §1

[19] = molecular target: 5-hydroxytryptamine receptor 1E (Homo sapiens, UniProt P28566)
Text: as §1

[20] = molecular target: 5-hydroxytryptamine receptor 1B (Homo sapiens, UniProt P28222)
Text: as §1

[21] = molecular target: D(1A) dopamine receptor (Homo sapiens, UniProt P21728)
Text: as §1

In the case of `CCN(CC)C(=O)N[C@H]1C=C2c3cccc4[nH]cc(c34)C[C@H]2N(C)C1` [lisuride, (S)], the Ki [1] is reported as 77 nM, the Ki [2] is reported as over 10 µM and the Ki [3] is reported as over 10 µM. The Ki [4] was 3.1 nM, the Ki [5] was over 10 µM and the Ki [6] was over 10 µM. The Ki [7] was over 10 µM, the Ki [8] was over 10 µM and the Ki [9] was over 10 µM. The Ki [10] was over 10 µM and the Ki [11] was over 10 µM.

`C[C@@H]1C[C@@H](C)N1C(=O)C1C=C2c3cccc4[nH]cc(c34)C[C@H]2N(C)C1` (some centres not stated) [ss-2c] was tested, and the Ki [12] was 850 nM, the Ki [13] was 14.5 nM and the Ki [14] was 27 nM. For the same compound, the Ki [15] was 73.6 nM, the Ki [16] was 19.2 nM and the Ki [4] was 27.3 nM. The Ki [17] was 2500 nM, the Ki [18] was 0.4 nM and the Ki [19] was 276 nM. It also gave a Ki [20] of 2.4 nM and a Ki [21] of 292 nM.
